Measurements as given in patent publication US5665736A, “N-benzoylmethyl-piperidines” (priority 1995, dated 1997).
Structures can show the parent of a compound that is named as a salt.

Test system: mice
Assay: Irwin test in mice, oral administration
Assay type: in vivo
Source text: These findings are most important, since the safety range of the compounds of this invention makes them be highly useful for their clinical application.

For `O=C(CN1CC[C@@H](c2ccc(F)cc2)[C@H](COc2ccc3c(c2)OCO3)C1)c1ccc(F)cc1` [Example 1, (-)-Trans-N-p-fluorobenzoylmethyl-4-(p-fluorophenyl)-3-[[3,4-(methylenedioxy)phenoxy]methyl]-piperidine hydrochloride], the “signs of toxicity, Irwin test” value (600 mg/kg) was “did not show any sign of toxicity”.
For `O=C(CN1CC[C@@H](c2ccc(F)cc2)[C@H](COc2ccc3c(c2)OCO3)C1)c1ccc(Cl)cc1` [Example 2, (-)-Trans-N-p-chlorobenzoylmethyl-4-(p-fluorophenyl)-3-[[3,4-(methylenedioxy)phenoxy]methyl]-piperidine hydrochloride], the “signs of toxicity, Irwin test” value (800 mg/kg) was “merely the onset of manifestations of hyperactivity was observed”.
With `Fc1ccc([C@@H]2CCNC[C@H]2COc2ccc3c(c2)OCO3)cc1` [Paroxetine, (-)-trans-4-(p-fluorophenyl)-3-[[3,4-(methylenedioxy)phenoxy]methyl]-piperidine, reference compound] the “signs of toxicity, Irwin test” value (400 mg/kg) was “convulsions, mydriasis and Straub tail”.
